# Laboratory results from ChEMBL document CHEMBL1914343, “Recent progress in synthesis and bioactivity studies of indolizines” (Eur J Med Chem, 2011).
# Calls of active or inactive are those of the source. The rule behind the calls is not given here.
# Columns and labels:
# Escherichia coli = test: Antibacterial activity against Escherichia coli at 100 ug/mL; format: functional, organism-based
# Streptomyces albus = test: Antibacterial activity against Streptomyces albus at 100 ug/mL; format: functional, organism-based
# Aspergillus flavus = test: Antifungal activity against Aspergillus flavus at 100 ug/mL; format: functional, organism-based
# Candida albicans = test: Antifungal activity against Candida albicans at 100 ug/mL; format: functional, organism-based
# Substance-P receptor = Substance-P receptor (Homo sapiens, UniProt P25103); test: Antagonist activity at human NK1 receptor expressed in CHO cells assessed as inhibition of SP-induced intracellular Ca2+ increase by Fura-2 assay; format: functional, cell-based; conditions: read-out: pA2 (converted)
# Substance-P receptor, sequence (P25103 whole entry): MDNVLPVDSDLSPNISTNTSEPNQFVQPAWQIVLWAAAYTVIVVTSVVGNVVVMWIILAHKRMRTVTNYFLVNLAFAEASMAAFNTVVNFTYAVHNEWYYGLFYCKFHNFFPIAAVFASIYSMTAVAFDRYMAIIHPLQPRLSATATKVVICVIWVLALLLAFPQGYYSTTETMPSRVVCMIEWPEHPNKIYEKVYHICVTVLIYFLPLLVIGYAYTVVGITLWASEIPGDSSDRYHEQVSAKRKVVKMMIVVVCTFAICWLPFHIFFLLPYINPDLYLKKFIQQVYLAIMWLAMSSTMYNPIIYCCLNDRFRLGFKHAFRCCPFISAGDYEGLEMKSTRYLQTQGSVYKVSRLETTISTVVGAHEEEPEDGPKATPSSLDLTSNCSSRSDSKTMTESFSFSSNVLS
# Substance-K receptor = target: T1, Substance-K receptor (Homo sapiens, UniProt P21452); test: Antagonist activity at human NK2 receptor expressed in CHO cells assessed as inhibition of Neurokinin A-induced increase in intracellular Ca2+ increase by Fura-2 assay; format: functional, cell-based; conditions: read-out: pA2 (converted)
# T1 sequence (P21452 whole entry): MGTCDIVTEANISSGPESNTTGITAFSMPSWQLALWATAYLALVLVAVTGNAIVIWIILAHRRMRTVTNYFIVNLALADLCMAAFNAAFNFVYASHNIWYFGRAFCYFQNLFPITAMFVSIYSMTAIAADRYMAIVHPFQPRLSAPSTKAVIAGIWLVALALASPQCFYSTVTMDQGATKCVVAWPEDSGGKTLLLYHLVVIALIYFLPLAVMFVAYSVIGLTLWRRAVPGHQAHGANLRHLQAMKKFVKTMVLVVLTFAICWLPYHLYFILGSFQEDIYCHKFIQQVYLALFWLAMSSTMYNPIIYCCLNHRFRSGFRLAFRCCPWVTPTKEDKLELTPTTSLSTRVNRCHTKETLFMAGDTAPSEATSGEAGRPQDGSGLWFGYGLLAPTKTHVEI
# [1] = test system: Mycobacterium tuberculosis; test: Antimycobacterial activity against Mycobacterium tuberculosis H37Rv by agar diffusion method; format: functional
# Mus musculus [2] = test: Antiinflammatory activity in […] mouse assessed as inhibition of carrageenan-induced edema after 3 hrs relative to control; format: functional
# Mus musculus [3] = test: Antiinflammatory activity in […] mouse assessed as inhibition of carrageenan-induced edema after 2 hrs relative to control; format: functional
# [4] = Inhibition of soybean arachidonate 15-lipoxygenase; set-up: species or system Glycine max
# [5] = test system: Mycobacterium tuberculosis; test: Antimycobacterial activity against Mycobacterium tuberculosis H37Rv ATCC 27294 at 6.25 ug/mL by microplate alamar blue assay; format: functional
# [6] = test system: Mycobacterium tuberculosis; test: Antimycobacterial activity against Mycobacterium tuberculosis H37Rv ATCC 27294 by microplate alamar blue assay; format: functional
# [7] = test system: Mycobacterium tuberculosis; test: Ratio MIC for ethambutol to compound for Mycobacterium tuberculosis H37Rv by agar diffusion method; format: functional
# [8] = test system: Mycobacterium tuberculosis; test: Ratio MIC for ciprofloxacin to compound for Mycobacterium tuberculosis H37Rv by agar diffusion method; format: functional
# [9] = Apparent permeability across human Caco2 cells; format: ADME, cell-based; conditions: Caco-2
# Histamine H3 receptor [10] = target: Histamine H3 receptor (Homo sapiens, UniProt Q9Y5N1); test: Antagonist activity at human histamine H3 receptor expressed in […] cells; format: functional, cell-based, SK-N-MC; conditions: read-out: pA2 (converted)
# Histamine H3 receptor (Homo sapiens, UniProt Q9Y5N1), sequence (Q9Y5N1 whole entry): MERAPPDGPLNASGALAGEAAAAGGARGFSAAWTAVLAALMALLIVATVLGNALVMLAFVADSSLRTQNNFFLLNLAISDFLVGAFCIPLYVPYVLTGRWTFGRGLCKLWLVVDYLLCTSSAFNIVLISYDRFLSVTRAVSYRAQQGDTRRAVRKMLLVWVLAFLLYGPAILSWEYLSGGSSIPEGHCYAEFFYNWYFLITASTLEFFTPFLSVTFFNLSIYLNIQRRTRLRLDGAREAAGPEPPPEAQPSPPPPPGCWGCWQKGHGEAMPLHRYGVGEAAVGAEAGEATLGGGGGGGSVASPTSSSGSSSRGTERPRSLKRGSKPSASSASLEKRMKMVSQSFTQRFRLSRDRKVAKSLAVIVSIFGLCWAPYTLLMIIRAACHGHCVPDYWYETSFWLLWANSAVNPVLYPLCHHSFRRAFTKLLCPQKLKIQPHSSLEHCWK
# Histamine H3 receptor [11] = target: Histamine H3 receptor (Rattus norvegicus, UniProt Q9QYN8); test: Antagonist activity at rat histamine H3 receptor expressed in […] cells; format: functional, cell-based, SK-N-MC; conditions: read-out: pA2 (converted)
# Histamine H3 receptor (Rattus norvegicus, UniProt Q9QYN8), sequence (Q9QYN8 whole entry): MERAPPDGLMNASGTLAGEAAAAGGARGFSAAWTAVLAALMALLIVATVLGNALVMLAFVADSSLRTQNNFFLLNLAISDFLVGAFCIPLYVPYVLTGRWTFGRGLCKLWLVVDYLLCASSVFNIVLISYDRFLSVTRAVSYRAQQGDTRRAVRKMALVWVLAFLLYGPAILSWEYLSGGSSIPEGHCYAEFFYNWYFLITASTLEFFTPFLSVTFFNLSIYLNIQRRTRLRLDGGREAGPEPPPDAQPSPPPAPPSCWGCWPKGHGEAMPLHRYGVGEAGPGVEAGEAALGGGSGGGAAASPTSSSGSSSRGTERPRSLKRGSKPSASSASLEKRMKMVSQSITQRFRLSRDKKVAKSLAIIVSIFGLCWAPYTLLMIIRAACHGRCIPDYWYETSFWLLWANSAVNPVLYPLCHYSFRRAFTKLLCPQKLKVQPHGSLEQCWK
# Albumin = Albumin (Homo sapiens, UniProt P02768); test: Binding affinity to human serum albumin; format: ADME; conditions: isolated protein
# Albumin, sequence (P02768 whole entry): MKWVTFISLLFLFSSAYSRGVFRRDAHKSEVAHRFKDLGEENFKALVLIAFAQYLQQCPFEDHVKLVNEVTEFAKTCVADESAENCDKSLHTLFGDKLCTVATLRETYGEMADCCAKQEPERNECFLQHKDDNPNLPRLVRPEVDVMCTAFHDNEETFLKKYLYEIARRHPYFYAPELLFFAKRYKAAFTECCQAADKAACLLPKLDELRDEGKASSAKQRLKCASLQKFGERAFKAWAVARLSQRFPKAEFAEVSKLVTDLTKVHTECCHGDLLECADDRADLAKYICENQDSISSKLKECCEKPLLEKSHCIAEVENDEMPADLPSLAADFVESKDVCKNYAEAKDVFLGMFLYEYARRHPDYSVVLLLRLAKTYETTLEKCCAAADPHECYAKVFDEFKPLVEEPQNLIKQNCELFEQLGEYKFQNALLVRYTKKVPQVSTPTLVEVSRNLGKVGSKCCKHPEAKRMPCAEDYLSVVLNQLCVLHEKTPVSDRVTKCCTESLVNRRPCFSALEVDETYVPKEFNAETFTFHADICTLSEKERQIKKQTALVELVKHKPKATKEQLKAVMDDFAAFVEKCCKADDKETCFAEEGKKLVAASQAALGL
# [12] = Half life in human liver microsomes; format: ADME, Microsome
# Estrogen receptor = target: T2, Estrogen receptor (Homo sapiens, UniProt P03372)
# T2 sequence (P03372 whole entry): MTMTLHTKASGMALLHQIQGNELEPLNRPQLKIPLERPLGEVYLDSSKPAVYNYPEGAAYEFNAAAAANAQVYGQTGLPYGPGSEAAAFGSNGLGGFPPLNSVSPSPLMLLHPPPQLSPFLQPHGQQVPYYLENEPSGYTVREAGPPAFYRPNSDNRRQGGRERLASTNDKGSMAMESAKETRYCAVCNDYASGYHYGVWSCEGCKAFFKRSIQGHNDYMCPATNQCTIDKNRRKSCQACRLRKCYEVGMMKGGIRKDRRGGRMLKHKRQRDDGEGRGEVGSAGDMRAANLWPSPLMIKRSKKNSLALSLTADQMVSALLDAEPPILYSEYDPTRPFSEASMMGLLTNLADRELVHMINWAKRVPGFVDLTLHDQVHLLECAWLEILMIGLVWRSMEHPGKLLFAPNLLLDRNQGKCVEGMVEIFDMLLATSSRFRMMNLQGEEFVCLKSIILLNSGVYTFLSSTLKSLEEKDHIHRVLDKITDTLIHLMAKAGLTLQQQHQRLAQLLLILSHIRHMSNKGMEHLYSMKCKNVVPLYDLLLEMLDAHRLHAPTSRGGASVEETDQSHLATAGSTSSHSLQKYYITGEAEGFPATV
# Description: Agonist activity at estrogen receptor
# [13] = target: T3, Polyunsaturated fatty acid lipoxygenase ALOX15 (Oryctolagus cuniculus, UniProt P12530); test: Inhibition of rabbit reticulocytes arachidonate 15-lipoxygenase
# T3 sequence (P12530 whole entry): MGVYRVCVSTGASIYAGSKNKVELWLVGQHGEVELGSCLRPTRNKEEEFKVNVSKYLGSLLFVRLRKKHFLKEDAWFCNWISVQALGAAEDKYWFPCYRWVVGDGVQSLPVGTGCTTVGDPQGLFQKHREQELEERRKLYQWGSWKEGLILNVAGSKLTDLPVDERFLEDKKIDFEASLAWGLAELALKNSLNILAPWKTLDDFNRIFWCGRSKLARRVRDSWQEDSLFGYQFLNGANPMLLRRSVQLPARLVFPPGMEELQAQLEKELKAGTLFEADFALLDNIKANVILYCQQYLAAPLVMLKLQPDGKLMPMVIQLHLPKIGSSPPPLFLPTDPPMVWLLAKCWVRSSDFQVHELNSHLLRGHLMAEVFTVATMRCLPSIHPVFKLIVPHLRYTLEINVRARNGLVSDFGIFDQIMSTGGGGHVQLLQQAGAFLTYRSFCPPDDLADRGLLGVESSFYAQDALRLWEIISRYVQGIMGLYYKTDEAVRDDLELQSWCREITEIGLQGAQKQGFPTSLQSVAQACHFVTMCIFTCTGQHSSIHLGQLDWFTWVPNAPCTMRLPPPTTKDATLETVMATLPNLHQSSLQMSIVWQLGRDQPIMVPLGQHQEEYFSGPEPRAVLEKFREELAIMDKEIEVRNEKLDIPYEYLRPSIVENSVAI
# Plasmodium falciparum = test: Antiplasmodial activity against Plasmodium falciparum; format: functional
# Leishmania donovani = test: Antileishmanial activity against Leishmania donovani; format: functional
# Trypanosoma cruzi = test: Antitrypanosomal activity against Trypanosoma cruzi; format: functional
# [14] = test system: Trypanosoma brucei rhodesiense; test: Antitrypanosomal activity against Trypanosoma brucei rhodesiense; format: functional
# Pichia kudriavzevii = test: Antifungal activity against Candida krusei at 32 ug/mL; format: functional, organism-based
# [15] = Antioxidant activity assessed as inhibition of lipid peroxidation after 30 mins; format: functional
smiles,measurement,setting,value
CCOC(=O)C1(C#N)C(c2ccc(Cl)cc2)=C(C(=O)c2cccs2)N2C(C)=CC=CC21 (stereo unspecified),Activity,Escherichia coli,Active
same,Activity,Streptomyces albus,Active
same,Activity,Aspergillus flavus,inactive
same,Activity,Candida albicans,Active
COC(=O)C1=C2CCC(C(=O)N[C@@H](CCc3c[nH]c4ccccc34)C(=O)N(C)Cc3ccccc3)N2C(=O)C(NC(C)=O)C1 (stereo partly specified),Kb,Substance-P receptor,126 nM
same,Kb,Substance-K receptor,631 nM
CCOC(=O)c1c(-c2ccc(Cl)cc2)cc2c3ccccc3ccn12,MIC,[1],2.3 µM
COC(=O)C1=C2CCC(C(=O)N[C@@H](CCc3c[nH]c4ccccc34)C(=O)N(C)Cc3ccccc3)N2C(=O)C(NC(=O)OCc2ccccc2)C1 (stereo partly specified),Kb,Substance-P receptor,200 nM
same,Kb,Substance-K receptor,200 nM
CC(C)Cc1ccc(C(C)C(=O)O)cc1 (stereo unspecified) [IBUPROFEN],inhibition (INH),Mus musculus [2],62%
same,inhibition (INH),Mus musculus [3],59%
N#Cc1c(-c2ccc(F)cc2)c([N+](=O)[O-])c2c3ccccc3ccn12,MIC,[1],3.9 µM
N#Cc1ccn2c(-c3ccccc3)c(-c3ccccc3)c(C(O)c3ccc(Cl)cc3)c2c1 (stereo unspecified),IC50,[4],23000 nM
same,inhibition at 6.25 µg/mL,[5],95%
same,MIC,[6],6.25 µg/mL
COC(=O)c1cc(C(=O)c2cc3ccccc3o2)n2ccccc12,inhibition (INH),Mus musculus [3],36%
N#Cc1ccn2c(-c3ccccc3)c(-c3ccccc3)c(C(O)C3CCCCC3)c2c1 (stereo unspecified),IC50,[4],23000 nM
same,MIC,[6],> 6.25 µg/mL
c1csc(-c2cc3ccccn3c2)c1,Activity,Escherichia coli,Active
same,Activity,Streptomyces albus,Active
same,Activity,Aspergillus flavus,inactive
same,Activity,Candida albicans,Active
CCOC(=O)c1c(-c2ccc(F)cc2)cc2c3ccccc3ccn12,MIC,[1],1 µM
same,Ratio,[7],7.6
same,Ratio,[8],4.7
c1ccn2cc(-c3ccc(OCCCN4CCCCC4)cc3)cc2c1,Papp,[9],14.1 ×10⁻⁶ cm/s
same,Kb,Histamine H3 receptor [10],3.16 nM
same,Kb,Histamine H3 receptor [11],19.5 nM
same,Activity,Albumin,50%
same,half-life,[12],10 min
CCc1c(-c2ccc(O)cc2)c2ccc3cccc1n32,IC50,Estrogen receptor,9.5 nM
Cc1c(-c2ccc(OCCCN3CCCCC3)cc2)cc2ccccn12,half-life,[12],54 min
N#Cc1ccn2c(-c3ccccc3)c(-c3ccccc3)c(C(O)c3ccccc3)c2c1 (stereo unspecified),IC50,[4],35000 nM
same,IC50,[13],48000 nM
same,inhibition at 6.25 µg/mL,[5],100%
same,MIC,[6],6.25 µg/mL
same,MIC,Plasmodium falciparum,2.3 µg/mL
same,MIC,Leishmania donovani,2.3 µg/mL
same,MIC,Trypanosoma cruzi,3.2 µg/mL
same,MIC,[14],12 µg/mL
same,Activity,Pichia kudriavzevii,inactive
same,IC50,[15],35800 nM
Cc1ccc(C(O)c2c(-c3ccccc3)c(-c3ccccc3)n3ccc(C#N)cc23)cc1 (stereo unspecified),IC50,[4],22000 nM
same,inhibition at 6.25 µg/mL,[5],90%
same,MIC,[6],6.25 µg/mL
COC(=O)C1=C2CCC(C(=O)N[C@@H](CCc3c[nH]c4ccccc34)C(=O)NCc3cc(C(F)(F)F)cc(C(F)(F)F)c3)N2C(=O)C(NC(C)=O)C1 (stereo partly specified),Kb,Substance-P receptor,100 nM
CC1=CC=CC2[C@@H]3C(=O)N(c4ccccc4)C(=O)[C@@H]3C(C(=O)c3cccs3)N12 (stereo partly specified),Activity,Escherichia coli,Active
same,Activity,Streptomyces albus,Active
same,Activity,Aspergillus flavus,Active
same,Activity,Candida albicans,Active
N#Cc1cc(C(=O)c2cc3ccccc3o2)n2ccccc12,inhibition (INH),Mus musculus [2],24%
